Laboratory results taken from PubChem BioAssay (NCI).
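How tested: cells in 96-well plates exposed to compound for 48 hours at five concentrations. GI50 marks 50% less growth. The concentration for full growth arrest is given as TGI.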

Key:
Experiment in all cases: NCI tumour cell line growth inhibition, 48 h
HL-60(TB) leukemia = tested on: HL-60(TB) leukemia
MDA-MB-231 breast = tested on: MDA-MB-231 breast
UACC-257 melanoma = tested on: UACC-257 melanoma
NCI-H226 lung = tested on: NCI-H226 lung
SF-268 CNS = tested on: SF-268 CNS
SF-539 CNS = tested on: SF-539 CNS
HCT-116 colon = tested on: HCT-116 colon
U251 CNS = tested on: U251 CNS
SK-MEL-5 melanoma = tested on: SK-MEL-5 melanoma
SK-MEL-2 melanoma = tested on: SK-MEL-2 melanoma
DU-145 prostate = tested on: DU-145 prostate
MALME-3M melanoma = tested on: MALME-3M melanoma
RPMI-8226 leukemia = tested on: RPMI-8226 leukemia
CCRF-CEM leukemia = tested on: CCRF-CEM leukemia
IGROV1 ovarian = tested on: IGROV1 ovarian
RXF 393 renal = tested on: RXF 393 renal
LOX IMVI melanoma = tested on: LOX IMVI melanoma
786-0 renal = tested on: 786-0 renal
SW-620 colon = tested on: SW-620 colon
NCI/ADR-RES ovarian = tested on: NCI/ADR-RES ovarian
MCF7 breast = tested on: MCF7 breast
HOP-62 NSCLC = tested on: HOP-62 NSCLC
HS 578T breast = tested on: HS 578T breast
KM12 colon = tested on: KM12 colon
OVCAR-4 ovarian = tested on: OVCAR-4 ovarian
MOLT-4 leukemia = tested on: MOLT-4 leukemia
PC-3 prostate = tested on: PC-3 prostate
SN12C renal = tested on: SN12C renal
BT-549 breast = tested on: BT-549 breast
OVCAR-5 ovarian = tested on: OVCAR-5 ovarian
HT29 colon = tested on: HT29 colon
SNB-75 CNS = tested on: SNB-75 CNS
SK-MEL-28 melanoma = tested on: SK-MEL-28 melanoma
OVCAR-8 ovarian = tested on: OVCAR-8 ovarian
UACC-62 melanoma = tested on: UACC-62 melanoma
OVCAR-3 ovarian = tested on: OVCAR-3 ovarian
HOP-92 NSCLC = tested on: HOP-92 NSCLC
CAKI-1 renal = tested on: CAKI-1 renal
NCI-H23 lung = tested on: NCI-H23 lung
M14 melanoma = tested on: M14 melanoma
SNB-19 CNS = tested on: SNB-19 CNS
EKVX NSCLC = tested on: EKVX NSCLC
NCI-H460 lung = tested on: NCI-H460 lung
T-47D breast = tested on: T-47D breast
HCT-15 colon = tested on: HCT-15 colon
SF-295 CNS = tested on: SF-295 CNS
SK-OV-3 ovarian = tested on: SK-OV-3 ovarian
COLO 205 colon = tested on: COLO 205 colon
HCC-2998 colon = tested on: HCC-2998 colon
UO-31 renal = tested on: UO-31 renal
SR leukemia = tested on: SR leukemia
MDA-MB-435 = tested on: MDA-MB-435
TK-10 renal = tested on: TK-10 renal
ACHN renal = tested on: ACHN renal
A549 NSCLC = tested on: A549 NSCLC
NCI-H522 lung = tested on: NCI-H522 lung

With `CCCCCCC/C(=N\N=C(N)N)c1ccc(O)cc1` the GI50 (HL-60(TB) leukemia) was 1.75 µM, the TGI (HL-60(TB) leukemia) was 3.65 µM and the GI50 (MDA-MB-231 breast) was 1.67 µM. For the same compound, the TGI (MDA-MB-231 breast) was 3.54 µM, the GI50 (UACC-257 melanoma) was 1.76 µM and the TGI (UACC-257 melanoma) was 3.81 µM. The GI50 (NCI-H226 lung) was 2.2 µM, the TGI (NCI-H226 lung) was 6.63 µM and the GI50 (SF-268 CNS) was 1.77 µM. It also gave a TGI (SF-268 CNS) of 5.31 µM, a GI50 (SF-539 CNS) of 1.91 µM and a TGI (SF-539 CNS) of 4.4 µM. It also gave a GI50 (HCT-116 colon) of 1.67 µM, a TGI (HCT-116 colon) of 3.41 µM and a GI50 (U251 CNS) of 1.54 µM. For the same compound, the TGI (U251 CNS) was 2.87 µM, the GI50 (SK-MEL-5 melanoma) was 1.5 µM and the TGI (SK-MEL-5 melanoma) was 2.82 µM. The GI50 (SK-MEL-2 melanoma) was 1.96 µM, the TGI (SK-MEL-2 melanoma) was 3.85 µM and the GI50 (DU-145 prostate) was 3.15 µM. It also gave a TGI (DU-145 prostate) of 11 µM, a GI50 (MALME-3M melanoma) of 1.77 µM and a TGI (MALME-3M melanoma) of 3.52 µM. The GI50 (RPMI-8226 leukemia) was 1.71 µM, the TGI (RPMI-8226 leukemia) was 4.3 µM and the GI50 (CCRF-CEM leukemia) was 1.96 µM. For the same compound, the TGI (CCRF-CEM leukemia) was 5.77 µM, the GI50 (IGROV1 ovarian) was 2.28 µM and the TGI (IGROV1 ovarian) was 10.7 µM. The GI50 (RXF 393 renal) was 1.94 µM, the TGI (RXF 393 renal) was 5.16 µM and the GI50 (LOX IMVI melanoma) was 1.62 µM. It also gave a TGI (LOX IMVI melanoma) of 2.97 µM, a GI50 (786-0 renal) of 2.16 µM and a TGI (786-0 renal) of 5.31 µM. For the same compound, the GI50 (SW-620 colon) was 1.65 µM, the TGI (SW-620 colon) was 3.35 µM and the GI50 (NCI/ADR-RES ovarian) was 10 µM. For the same compound, the TGI (NCI/ADR-RES ovarian) was 23.2 µM, the GI50 (MCF7 breast) was 1.71 µM and the TGI (MCF7 breast) was 4.43 µM. For the same compound, the GI50 (HOP-62 NSCLC) was 1.81 µM, the TGI (HOP-62 NSCLC) was 3.81 µM and the GI50 (HS 578T breast) was 3.14 µM. It also gave a TGI (HS 578T breast) of 24.7 µM, a GI50 (KM12 colon) of 1.73 µM and a TGI (KM12 colon) of 3.52 µM. For the same compound, the GI50 (OVCAR-4 ovarian) was 1.65 µM, the TGI (OVCAR-4 ovarian) was 12.3 µM and the GI50 (MOLT-4 leukemia) was 1.67 µM. It also gave a TGI (MOLT-4 leukemia) of 4.76 µM, a GI50 (PC-3 prostate) of 2.17 µM and a TGI (PC-3 prostate) of 8.92 µM. For the same compound, the GI50 (SN12C renal) was 2.76 µM, the TGI (SN12C renal) was 11.8 µM and the GI50 (BT-549 breast) was 2.41 µM. For the same compound, the TGI (BT-549 breast) was 8.65 µM, the GI50 (OVCAR-5 ovarian) was 3.83 µM and the TGI (OVCAR-5 ovarian) was 15.3 µM. For the same compound, the GI50 (HT29 colon) was 2.35 µM, the TGI (HT29 colon) was 6.25 µM and the GI50 (SNB-75 CNS) was 1.58 µM. The TGI (SNB-75 CNS) was 5.41 µM, the GI50 (SK-MEL-28 melanoma) was 1.73 µM and the TGI (SK-MEL-28 melanoma) was 3.28 µM. The GI50 (OVCAR-8 ovarian) was 2.12 µM, the TGI (OVCAR-8 ovarian) was 5.26 µM and the GI50 (UACC-62 melanoma) was 1.55 µM. For the same compound, the TGI (UACC-62 melanoma) was 3.26 µM, the GI50 (OVCAR-3 ovarian) was 2.23 µM and the TGI (OVCAR-3 ovarian) was 7.84 µM. The GI50 (HOP-92 NSCLC) was 0.692 µM, the TGI (HOP-92 NSCLC) was 3.19 µM and the GI50 (CAKI-1 renal) was 2.8 µM. The TGI (CAKI-1 renal) was 11.8 µM, the GI50 (NCI-H23 lung) was 2.6 µM and the TGI (NCI-H23 lung) was 10.9 µM. It also gave a GI50 (M14 melanoma) of 1.71 µM, a TGI (M14 melanoma) of 3.18 µM and a GI50 (SNB-19 CNS) of 2.13 µM. For the same compound, the TGI (SNB-19 CNS) was 10.6 µM, the GI50 (EKVX NSCLC) was 2.71 µM and the TGI (EKVX NSCLC) was 14 µM. For the same compound, the GI50 (NCI-H460 lung) was 1.82 µM, the TGI (NCI-H460 lung) was 3.68 µM and the GI50 (T-47D breast) was 1.87 µM. It also gave a TGI (T-47D breast) of 4.89 µM, a GI50 (HCT-15 colon) of 3.48 µM and a TGI (HCT-15 colon) of 12.9 µM. The GI50 (SF-295 CNS) was 1.77 µM, the TGI (SF-295 CNS) was 4.46 µM and the GI50 (SK-OV-3 ovarian) was 3.04 µM. For the same compound, the TGI (SK-OV-3 ovarian) was 11.2 µM, the GI50 (COLO 205 colon) was 1.74 µM and the TGI (COLO 205 colon) was 3.16 µM. For the same compound, the GI50 (HCC-2998 colon) was 1.62 µM, the TGI (HCC-2998 colon) was 3 µM and the GI50 (UO-31 renal) was 2.38 µM. The TGI (UO-31 renal) was 12.1 µM, the GI50 (SR leukemia) was 1.67 µM and the TGI (SR leukemia) was 3.96 µM. It also gave a GI50 (MDA-MB-435) of 1.71 µM, a TGI (MDA-MB-435) of 3.44 µM and a GI50 (TK-10 renal) of 5.53 µM. For the same compound, the TGI (TK-10 renal) was 18 µM, the GI50 (ACHN renal) was 2.25 µM and the TGI (ACHN renal) was 5.13 µM. For the same compound, the GI50 (A549 NSCLC) was 2.88 µM, the TGI (A549 NSCLC) was 17.2 µM and the GI50 (NCI-H522 lung) was 1.62 µM. The TGI (NCI-H522 lung) was 3.48 µM.
